Results published in US5198552A, “Indole derivative having antiviral, interferon-inducing and immunomodulatory effects” (priority 1991, dated 1993).
Where “and” joins values, the source holds several entries; their conditions need not be identical. Identical values can stand only once. Entries after “also recorded” stand apart in the source; their conditions may differ. Like-named read-outs stand apart in the source and are kept apart here.

Legend:
[1] = system: peritoneal macrophages; assay: Absorbing capacity of mouse peritoneal macrophages (neutral red); format: in vivo, mice; parameters: Absorbing Capacity, percent of control: concentration or dose not given beside the values
[2] = system: influenza A/B viruses; format: cell-based
[3] = system: interferon; format: cell-based, hen; conditions: 20 µg/ml
[4] = system: Salmonella typhimurium; assay: Mutagenic activity on Salmonella typhimurium; conditions: 50 to 1000 μm per disk
[5] = system: stem cells; assay: Inactivation of stem cells with allogenic lymphocytes (graft versus host, spleen endocolonies); format: in vivo, mice
[6] = system: herpes simplex virus from antigen-type I L2 -strain; assay: Preventive action in generalized mouse herpes; parameters: species or system mice; conditions: in vivo
[7] = system: antibody-producing cells; assay: Antibody-producing cells in the spleen of mice immunized with sheep erythrocytes; format: in vivo; parameters: immune response against the control: concentration or dose not given beside the values
[8] = Effect on thermal skin lesion; conditions: in vivo
[9] = Acute toxicity, single oral administration, mice; conditions: mouse, in vivo
[10] = Long-term per os toxicity, dogs; format: in vivo; conditions: per os 25 mg/kg over 6 months
[11] = system: interferon; assay: Interferon induction in mouse blood serum; format: in vivo, mice
[12] = system: influenza viruses; assay: Virucidal action on influenza viruses
[13] = system: lymphocytes; format: in vivo, human
[14] = clinical trials
[15] = Maximum tolerable concentration for chick embryo fibroblasts; format: cell-based; conditions: chicken
[16] = system: sarcoma-45; assay: Development of grafted sarcoma-45; format: in vivo, rats; conditions: for Sarcoma growth: 125 mg/kg daily during 5 days, p < 0.05
Source text: Control animals were given only a starch solution. The dynamic development of the tumor was monitored by intravital measurements of its mass.

[17] = Prolonged administration to animals; format: in vivo
[18] = system: influenza A/B virus; assay: Clinical trial against influenza A/B virus infection; format: in vivo, human; conditions: hydrochloride monohydrate
Procedure: The clinical checking of the preparation was performed in comparison to control groups o patients which were taken a symptomatic treatment.

[19] = Long-term per os toxicity, guinea pigs; format: in vivo; conditions: per os 100 to 125 mg/kg over 3 months
[20] = system: influenza A/B viruses; assay: Medicinal effect on experimental influenzal pneumonia of mice induced by influenza A/B viruses; format: in vivo; conditions: hydrochloride monohydrate
[21] = Long-term per os toxicity, rabbits; format: in vivo; conditions: per os 50 mg/kg during 2 months
[22] = Long-term per os toxicity, rats; format: in vivo; conditions: per os 100 to 125 mg/kg during 6 months
[23] = Physical properties of the compound (heating, solubility, hygroscopicity, pH of solution); format: physicochemical
Procedure: The compound according to the invention is a crystalline powder, having a colour from white with tints of green-yellow to light-yellow with green hues; a bitter in taste, odourless. The melting point of the compound is not characteristic.
The solution containing 1 g of the compound in 1450 ml of water at 25° C. has pH of 4.37 (potentiometrically).

[24] = system: interferon; assay: Interferon induction in human blood serum; format: in vivo
[25] = Localized irritant action in oral administration (hystological tests); format: in vivo
[26] = Allergizing effect, guinea pigs; format: in vivo; conditions: subcutaneous injections and repeated skin applications
[27] = Allergizing effect, rabbits; format: in vivo; conditions: subcutaneous injections and repeated skin applications
[28] = 1 day after single administration
[29] = 2 day after single administration
[30] = single 100 mg and 300 mg daily per os
[31] = patients with influenza virus infection

## CCOC(=O)c1c(CSc2ccccc2)n(C)c2cc(Br)c(O)c(CN(C)C)c12.Cl.O [preparation of the invention, ethyl 6-bromo-5-hydroxy-4-dimethylaminomethyl-1-methyl-2-phenylthiomethylindole-3-carboxylate hydrochloride monohydrate]
[1]; [28]
  Absorbing Capacity of Peritoneal Macrophages: 27.7 ± 3.5 mg/6 × 10^6 cells
  Absorbing Capacity, percent of control: 125 ± 17%
[1]; [29]
  Absorbing Capacity of Peritoneal Macrophages: 33.6 ± 4.7 mg/6 × 10^6 cells
  Absorbing Capacity, percent of control: 147 ± 20.6%
[1]; 3 day after single administration
  Absorbing Capacity of Peritoneal Macrophages: 37.4 ± 3.7 mg/6 × 10^6 cells
[1]; by 2-3 days after a single administration, p<0.05
  absorbing capacity of macrophages: 164±13%
[1]; in vivo
  stimulation of absorbing capacity of macrophages: stimulates the absorbing capacity of macrophages to a greater extent than administration of levamisole
[1]; mouse, in vivo
  effect on counts of macrophages washed off the peritoneal cavity: no effect on counts of macrophages
[2]; hydrochloride monohydrate
  inhibition of influenza A/B virus reproduction / chemotherapeutical effect: shows a pronounced chemotherapeutical effect; also recorded: Inhibits the reproduction
[2]; single-stage infection, 5 μm/ml, reducing infectivity titer and suppressing plague-forming activity
  stage at which the virus-inhibiting effect is expressed: early stages of influenza viruses reproduction in cells: adsorption, penetration and probably deproteinization
[3]; 8 hours
  Interferon titer: 640-1280 U/ml
[3]; 24 hours
  maximum interferon titer: 2560 U/ml
[3]; by 48 hours
  Interferon titer: 320 U/ml
[4]
  mutagenic activity: no mutagenic activity
[5]; 1.25 × 10^6 lymphocytes
  The counts of spleen endocolonies (M ± m): 2.5 ± 0.4
[5]; 2.5 × 10^6 lymphocytes
  The counts of spleen endocolonies (M ± m): 1.6 ± 0.2
[5]; 5.0 × 10^6 lymphocytes
  The counts of spleen endocolonies (M ± m): 0.3 ± 0.1
[5]; preparation 100 mg per 1 kg orally, levamisole 5 mg per 1 kg, hydrochloride monohydrate
  effect on yield of spleen colonies under graft versus host conditions: reduces both observed deviations as compared to control values if the concentration of introduced cells is not the highest; also recorded: normalizes the proliferative activity of target cells and their ability of producing a vital colony
[6]
  prevention of death: 40%
[6]; hydrochloride monohydrate
  Lethality: 60% and 75%
  Lethality: absolute animal number: 12/20 and 15/20
  The decrease of lethality: 40% and 25%
[7]; 7-17 day of tumor development, single (3 days prior to immunization) or 5-times daily
  immunopotentiating effect on tumor-carrier animals: immunopotentiating effect on tumor-carrier animals
[7]; intact mice, a single use
  Antibody-producing cells in spleen (% of control): 246 ± 6.0%
[7]; intact mice, during 3 days, daily
  Antibody-producing cells in spleen (% of control): 141 ± 13%
[7]; intact mice, during 5 days, daily
  Antibody-producing cells in spleen (% of control): 192 ± 14.0%
[7]; irradiated animals
  immunostimulating effect on irradiated animals: pronounced immunostimulating effect
[7]; irradiated animals, administered 3 days prior to irradiation
  immune response against the control: 230%
[7]; mice, intact and irradiated
  stimulation of antibody genesis, compared with reference standards: superior over reference standards--levamisole and a double-stranded RF2 phage RNA
[7]; totally irradiated (2 Gr.), 5 times in 3 days
  Antibody-producing cells in spleen (% of control): 96 ± 20.0%
[7]; totally irradiated (2 Gr.), a single use
  Antibody-producing cells in spleen (% of control): 230 ± 12.0%
[7]; totally irradiated (2 Gr.), during 3 days, daily
  Antibody-producing cells in spleen (% of control): 129 ± 19%
[7]; totally irradiated (2 Gr.), during 5 days, daily
  Antibody-producing cells in spleen (% of control): 181 ± 11.3%
[7]; totally irradiated tumor-carriers
  immunopotentiating effect on totally irradiated tumor-carrier animals: pronounced immunopotentiating effect
[7]; totally irradiated tumor-carriers (2 Gr.), 5 times in 3 days
  Antibody-producing cells in spleen (% of control): 250 ± 21.5%
[7]; totally irradiated tumor-carriers (2 Gr.), during 3 days, daily
  Antibody-producing cells in spleen (% of control): 121 ± 25%
[7]; totally irradiated tumor-carriers (2 Gr.), during 5 days, daily
  Antibody-producing cells in spleen (% of control): 128 ± 28.5%
[7]; tumor-carriers, 5 times in 3 days
  Antibody-producing cells in spleen (% of control): 110 ± 11.0%
[7]; tumor-carriers, a single use
  Antibody-producing cells in spleen (% of control): 211 ± 10.0%
[7]; tumor-carriers, during 3 days, daily
  Antibody-producing cells in spleen (% of control): 99 ± 19%
[8]
  effect on a thermal skin lesion: exert a thermoprotective action and reduce a thermal skin lesion
[9]
  LD50: 340 mg/kg
[10]
  pathological changes: did not cause any pathological changes
[11]; mice, repeated administering
  interferon induction on repeated administering: a depressed reactivity state condition occurs in the animals
[11]; per os, 62.5 mg/kg, after 16 h
  Interferon titer: 320-640 U/ml
[11]; per os, 62.5 mg/kg, after 24 h
  Interferon titer: 640 U/ml
[11]; per os, 62.5 mg/kg, after 48 h
  Interferon titer: 160 U/ml
[11]; per os, 62.5 mg/kg, after 72 h
  Interferon titer: 40 U/ml
[11]; per os, 125 mg/kg, after 16 h
  Interferon titer: 640 U/ml
[11]; per os, 125 mg/kg, after 24 h
  Interferon titer: 320-640 U/ml
[11]; per os, 125 mg/kg, after 48 h
  Interferon titer: 640 U/ml
[11]; per os, 125 mg/kg, after 72 h
  Interferon titer: 160 U/ml
[11]; per os, 250 mg/kg, after 16 h
  Interferon titer: 320-540 U/ml
[11]; per os, 250 mg/kg, after 24 h
  Interferon titer: 640-1280 U/ml
[11]; per os, 250 mg/kg, after 48 h
  Interferon titer: 320 U/ml
[11]; per os, 250 mg/kg, after 72 h
  Interferon titer: 160 U/ml
[11]; per os, 250 to 62.5 mg/kg, 16 hours, persisted up to 48 hours
  high interferon titers in mouse blood serum: 640 U/ml
[12]
  virucidal action on influenza viruses: No virucidal action
[13]; [30]
  bonding receptors with the outer lymphocyte membrane: leads to changes in bonding receptors with the outer lymphocyte membrane
  counts of T-populations: fails to change the counts of T-populations
[13]; time of observation
  persistence of changes in bonding receptors: 14 days
[13]; vaccination 24 hours after administering
  effect of vaccination on the nature of changes of bonding receptors: no effect on the nature of changes of bonding receptors
[14]
  toxicity / tolerability in patients: non-toxic, is well tolerated by patients
[15]
  MNTC: 20 µg/mL
[16]; 1 month 10 days after grafting
  Sarcoma growth: 21.0 ± 3.9 cm^3
[16]; 1 month 16 days after grafting
  Sarcoma growth: 38.0 ± 7.5 cm^3
[16]; 1 month after grafting
  Sarcoma growth: 8.2 ± 1.4 cm^3
[16]; 2 months after grafting
  Sarcoma growth: 39.9 ± 9.7 cm^3
[16]; 12 month period of observation, hydrochloride monohydrate
  effect on development of the tumor: inhibition of the development of tumor was found; also recorded: inhibitory effect on the development of a massive tumor
[17]
  alternations in parenchymatous organs: may cause in animals the development of non-specific degenerative alternations in parenchymatous organs
[18]; human, in vivo, po
  therapeutical efficacy against influenza A/B virus infection: has the therapeutical effect on influenza A/B virus infections; also recorded: shortening the febrile period, intoxication and catarrhal conditions as well as by shortening the illness duration
[18]; [31]
  frequency of chronic disease exacerbations: considerably decreases the frequency of chronic disease exacerbations; also recorded: decreased considerably the frequency of chronic disease exacerbations
  postinfluenzal complications: prevents from post-influenzal complications; also recorded: prevented the development of postinfluenzal complications
[19]
  pathological changes: did not cause any pathological changes
[20]
  medicinal (chemotherapeutical) effect on influenzal pneumonia: shows a pronounced chemotherapeutical effect; also recorded: Exerts a medicinal effect
[21]
  pathological changes: did not cause any pathological changes
[22]
  pathological changes: did not cause any pathological changes
[23]
  hygroscopicity: non-hydroscopic
[23]; 1 g of the compound in 1450 ml of water at 25° C., potentiometrically
  pH of solution: 4.37
[23]; heated for 3 hours at 110° to 120° C.
  behaviour when heated: looses the molecule of H2 O
[23]; water, methanol, ethanol
  solubility in water, methanol, ethanol: poorly soluble
[24]; 3-times administration (300 mg), all 12
  volunteers with interferon induction: 100%
[24]; 3 times per day (300 mg)
  Interferon titer: 160-320 U/ml
[24]; 3 times per day (300 mg), 12 men
  The number of positive reactions: 12
[24]; 6 times per day during 2 days (600 mg), 12 men
  The number of positive reactions: 12
[24]; during 2 days (600 mg)
  Interferon titer: 40-80 U/ml
[24]; increase in dose and duration of administration
  development of hyporeactivity on increase in dose and duration: development of hyporeactivity in human beings
[24]; single administration (100 mg)
  Interferon titer: 40-80 U/ml
[24]; single administration per day (100 mg), 13 men
  The number of positive reactions: 8
[24]; single per os 100 mg, 8 out of 13
  volunteers with interferon induction: 61.5%
[25]
  localized irritant action: no localized irritant action
[26]
  allergizing action: did not exert an allergizing action
[27]
  allergizing action: did not exert an allergizing action
